Counter-ions that a name gives are not always drawn. Like-named read-outs stand apart in the source and are kept apart here. Where a SMILES comes first, the peptide text is derived from it. [ ]: non-standard residue; d: D form. The star is where a group is joined. Sta = CC(C)C[C@H](N)[C@@H](O)CC(=O)O; Isovaleryl = CC(C)CC(=O)*
How the values were obtained:
Test in all cases: AK assay 384-well format, Prestwick library screening
[1] = system: K. pneumoniae; assay type: cell-based, Klebsiella pneumoniae; conditions: 50 μM final drug concentration; for fold induction at 50 µM: Klebsiella pneumoniae, 3 h
[2] = system: E. cloacae; assay type: cell-based, Enterobacter cloacae; conditions: 50 μM final drug concentration; for fold induction at 50 µM: Enterobacter cloacae, 3 h
[3] = system: P. aeruginosa; assay type: cell-based, Pseudomonas aeruginosa; conditions: 50 μM final drug concentration; for fold induction at 50 µM: Pseudomonas aeruginosa, 3 h
[4] = system: E. coli; assay type: cell-based, Escherichia coli; conditions: 50 μM final drug concentration; for fold induction at 50 µM: Escherichia coli, 3 h
[5] = system: S. aureus strain USA300-0114; assay type: cell-based, Staphylococcus aureus; conditions: 50 μM final drug concentration; for fold induction at 50 µM: Staphylococcus aureus, USA300, 3 h
[6] = system: E. faecium; assay type: cell-based, Enterococcus faecium; conditions: 50 μM final drug concentration; for fold induction at 50 µM: Enterococcus faecium, 3 h
[7] = system: A. baumannii strain 98-37-09; assay type: cell-based, Acinetobacter baumannii; conditions: 50 μM final drug concentration; for fold induction at 50 µM: Acinetobacter baumannii, 983709, 3 h
[8] = 384-well format, cutoff for positive-scoring molecules 3-fold increase, read-out: AK-based Prestwick Library Screening Results, K. pneumoniae (increase in extracellular AK activity)
[9] = 384-well format, cutoff for positive-scoring molecules 3-fold increase, read-out: AK-based Prestwick Library Screening Results, E. cloacae (increase in extracellular AK activity)
[10] = 384-well format, cutoff for positive-scoring molecules 3-fold increase, read-out: AK-based Prestwick Library Screening Results, P. aeruginosa (increase in extracellular AK activity)
[11] = 384-well format, cutoff for positive-scoring molecules 3-fold increase, read-out: AK-based Prestwick Library Screening Results, E. coli (increase in extracellular AK activity)
[12] = 384-well format, cutoff for positive-scoring molecules 3-fold increase, read-out: AK-based Prestwick Library Screening Results, S. aureus (increase in extracellular AK activity)
[13] = 384-well format, cutoff for positive-scoring molecules 3-fold increase, read-out: AK-based Prestwick Library Screening Results, E. faecium (increase in extracellular AK activity)
[14] = 384-well format, cutoff for positive-scoring molecules 3-fold increase, read-out: AK-based Prestwick Library Screening Results, A. baumannii (increase in extracellular AK activity)
[15] = planktonic, cutoff for positive 3-fold increase, read-out: AK-based Prestwick Library Screening Results, K. pneumoniae (fold increase in extracellular AK activity)
[16] = planktonic, cutoff for positive 3-fold increase, read-out: AK-based Prestwick Library Screening Results, E. cloacae (fold increase in extracellular AK activity)
[17] = planktonic, cutoff for positive 3-fold increase, read-out: AK-based Prestwick Library Screening Results, P. aeruginosa (fold increase in extracellular AK activity)
[18] = planktonic, cutoff for positive 3-fold increase, read-out: AK-based Prestwick Library Screening Results, E. coli (fold increase in extracellular AK activity)
[19] = planktonic, cutoff for positive 3-fold increase, read-out: AK-based Prestwick Library Screening Results, S. aureus (fold increase in extracellular AK activity)
[20] = planktonic, cutoff for positive 3-fold increase, read-out: AK-based Prestwick Library Screening Results, E. faecium (fold increase in extracellular AK activity)
[21] = planktonic, cutoff for positive 3-fold increase, read-out: AK-based Prestwick Library Screening Results, A. baumannii (fold increase in extracellular AK activity)

CC(C)CC(=O)N[C@H](C(=O)N[C@H](C(=O)N[C@@H](CC(C)C)[C@@H](O)CC(=O)N[C@@H](C)C(=O)N[C@@H](CC(C)C)[C@@H](O)CC(=O)O)C(C)C)C(C)C [Pepstatin A] (Isovaleryl-VV[Sta]A[Sta]-OH)
AK-based Prestwick Library Screening Results: K. pneumoniae (increase in extracellular AK activity) ([1]; planktonic K. pneumoniae, 384-well, […]): 0.5 | AK-based Prestwick Library Screening Results: E. cloacae (increase in extracellular AK activity) ([2]; planktonic E. cloacae, 384-well, […]): 0.4 | AK-based Prestwick Library Screening Results: P. aeruginosa (increase in extracellular AK activity) ([3]; planktonic P. aeruginosa, 384-well, […]): 0.4 | AK-based Prestwick Library Screening Results: E. coli (increase in extracellular AK activity) ([4]; planktonic E. coli, 384-well, […]): 0.5 | AK-based Prestwick Library Screening Results: S. aureus (increase in extracellular AK activity) ([5]; planktonic S. aureus, 384-well, […]): 0.4 | AK-based Prestwick Library Screening Results: E. faecium (increase in extracellular AK activity) ([6]; planktonic E. faecium, 384-well, […]): 0.8 | AK-based Prestwick Library Screening Results: A. baumannii (increase in extracellular AK activity) ([7]; planktonic A. baumannii, 384-well, […]): 0.4

CCCN1C[C@H](CSC)C[C@@H]2c3cccc4[nH]cc(c34)C[C@H]21 [Pergolide mesylate]
fold induction at 50 µM ([1]; planktonic K. pneumoniae, 384-well, cutoff for positive-scoring molecules 3-fold increase, read-out: AK-based Prestwick Library Screening Results: K. pneumoniae (increase in extracellular AK activity)): 0.8 | fold induction at 50 µM ([2]; planktonic E. cloacae, 384-well, cutoff for positive-scoring molecules 3-fold increase, read-out: AK-based Prestwick Library Screening Results: E. cloacae (increase in extracellular AK activity)): 1.4 | fold induction at 50 µM ([3]; planktonic P. aeruginosa, 384-well, cutoff for positive-scoring molecules 3-fold increase, read-out: AK-based Prestwick Library Screening Results: P. aeruginosa (increase in extracellular AK activity)): 1 | fold induction at 50 µM ([4]; planktonic E. coli, 384-well, cutoff for positive-scoring molecules 3-fold increase, read-out: AK-based Prestwick Library Screening Results: E. coli (increase in extracellular AK activity)): 1.3 | fold induction at 50 µM ([5]; planktonic S. aureus, 384-well, cutoff for positive-scoring molecules 3-fold increase, read-out: AK-based Prestwick Library Screening Results: S. aureus (increase in extracellular AK activity)): 1 | fold induction at 50 µM ([6]; planktonic E. faecium, 384-well, cutoff for positive-scoring molecules 3-fold increase, read-out: AK-based Prestwick Library Screening Results: E. faecium (increase in extracellular AK activity)): 1 | fold induction at 50 µM ([7]; planktonic A. baumannii, 384-well, cutoff for positive-scoring molecules 3-fold increase, read-out: AK-based Prestwick Library Screening Results: A. baumannii (increase in extracellular AK activity)): 1.3

C1CCC(C(CC2CCCCN2)C2CCCCC2)CC1 (stereo not drawn) [Perhexiline maleate]
fold induction at 50 µM ([1]; planktonic K. pneumoniae, 384-well, […], read-out: AK-based Prestwick Library Screening Results: K. pneumoniae (increase in extracellular AK activity)): 1.6 | fold induction at 50 µM ([2]; planktonic E. cloacae, 384-well, […], read-out: AK-based Prestwick Library Screening Results: E. cloacae (increase in extracellular AK activity)): 1.5 | fold induction at 50 µM ([3]; planktonic P. aeruginosa, 384-well, […], read-out: AK-based Prestwick Library Screening Results: P. aeruginosa (increase in extracellular AK activity)): 1.4 | fold induction at 50 µM ([4]; planktonic E. coli, 384-well, […], read-out: AK-based Prestwick Library Screening Results: E. coli (increase in extracellular AK activity)): 1.8 | fold induction at 50 µM ([5]; planktonic S. aureus, 384-well, […], read-out: AK-based Prestwick Library Screening Results: S. aureus (increase in extracellular AK activity)): 0.8 | fold induction at 50 µM ([6]; planktonic E. faecium, 384-well, […], read-out: AK-based Prestwick Library Screening Results: E. faecium (increase in extracellular AK activity)): 1.2 | fold induction at 50 µM ([7]; planktonic A. baumannii, 384-well, […], read-out: AK-based Prestwick Library Screening Results: A. baumannii (increase in extracellular AK activity)): 3.4

CCC[C@H](N[C@@H](C)C(=O)N1[C@H](C(=O)O)C[C@@H]2CCCC[C@@H]21)C(=O)OCC [Perindopril]
fold induction at 50 µM ([1]; planktonic K. pneumoniae, positive cutoff 3-fold increase, read-out: AK-based Prestwick library screening result, K. pneumoniae (fold increase in extracellular AK activity)): 1.1 | fold induction at 50 µM ([2]; planktonic E. cloacae, positive cutoff 3-fold increase, read-out: AK-based Prestwick library screening result, E. cloacae (fold increase in extracellular AK activity)): 1.3 | fold induction at 50 µM ([3]; planktonic P. aeruginosa, positive cutoff 3-fold increase, read-out: AK-based Prestwick library screening result, P. aeruginosa (fold increase in extracellular AK activity)): 1.2 | fold induction at 50 µM ([4]; planktonic E. coli, positive cutoff 3-fold increase, read-out: AK-based Prestwick library screening result, E. coli (fold increase in extracellular AK activity)): 1.2 | fold induction at 50 µM ([5]; planktonic S. aureus, positive cutoff 3-fold increase, read-out: AK-based Prestwick library screening result, S. aureus (fold increase in extracellular AK activity)): 1.1 | fold induction at 50 µM ([6]; planktonic E. faecium, positive cutoff 3-fold increase, read-out: AK-based Prestwick library screening result, E. faecium (fold increase in extracellular AK activity)): 1 | fold induction at 50 µM ([7]; planktonic A. baumannii, positive cutoff 3-fold increase, read-out: AK-based Prestwick library screening result, A. baumannii (fold increase in extracellular AK activity)): 1.4

OCCN1CCN(CCCN2c3ccccc3Sc3ccc(Cl)cc32)CC1 [Perphenazine]
fold induction at 50 µM [1, 8]: 1.3 | fold induction at 50 µM [2, 9]: 1.4 | fold induction at 50 µM [3, 10]: 1.1 | fold induction at 50 µM [4, 11]: 1.5 | fold induction at 50 µM [5, 12]: 0.9 | fold induction at 50 µM [6, 13]: 1.2 | fold induction at 50 µM [7, 14]: 1.6

CCOc1ccc(NC(C)=O)cc1 [Phenacetin]
fold induction at 50 µM [1, 15]: 0.9 | fold induction at 50 µM [2, 16]: 1.4 | fold induction at 50 µM [3, 17]: 0.9 | fold induction at 50 µM [4, 18]: 1.2 | fold induction at 50 µM [5, 19]: 0.8 | fold induction at 50 µM [6, 20]: 0.9 | fold induction at 50 µM [7, 21]: 1.1

Nc1ccc(/N=N/c2ccccc2)c(N)n1 [Phenazopyridine hydrochloride]
fold induction at 50 µM ([1]; planktonic, cutoff for positive-scoring molecules 3-fold increase, read-out: AK-based Prestwick Library Screening Results, K. pneumoniae (fold increase in extracellular AK activity)): 0.1 | fold induction at 50 µM ([2]; planktonic, cutoff for positive-scoring molecules 3-fold increase, read-out: AK-based Prestwick Library Screening Results, E. cloacae (fold increase in extracellular AK activity)): 1.4 | fold induction at 50 µM ([3]; planktonic, cutoff for positive-scoring molecules 3-fold increase, read-out: AK-based Prestwick Library Screening Results, P. aeruginosa (fold increase in extracellular AK activity)): 0.1 | fold induction at 50 µM ([4]; planktonic, cutoff for positive-scoring molecules 3-fold increase, read-out: AK-based Prestwick Library Screening Results, E. coli (fold increase in extracellular AK activity)): 0.1 | fold induction at 50 µM ([5]; planktonic, cutoff for positive-scoring molecules 3-fold increase, read-out: AK-based Prestwick Library Screening Results, S. aureus (fold increase in extracellular AK activity)): 0.3 | fold induction at 50 µM ([6]; planktonic, cutoff for positive-scoring molecules 3-fold increase, read-out: AK-based Prestwick Library Screening Results, E. faecium (fold increase in extracellular AK activity)): 0.1 | fold induction at 50 µM ([7]; planktonic, cutoff for positive-scoring molecules 3-fold increase, read-out: AK-based Prestwick Library Screening Results, A. baumannii (fold increase in extracellular AK activity)): 0.1

NNCCc1ccccc1 [Phenelzine sulfate]
fold induction at 50 µM [1, 8]: 0.6 | fold induction at 50 µM [2, 9]: 0.5 | fold induction at 50 µM [3, 10]: 0.5 | fold induction at 50 µM [4, 11]: 0.5 | fold induction at 50 µM [5, 12]: 0.5 | fold induction at 50 µM [6, 13]: 0.8 | fold induction at 50 µM [7, 14]: 0.5

CC(Oc1ccccc1)C(=O)N[C@@H]1C(=O)N2[C@@H]1SC(C)(C)[C@@H]2C(=O)O (stereo partly drawn) [Phenethicillin potassium salt]
fold induction at 50 µM [1, 15]: 0.5 | fold induction at 50 µM [2, 16]: 0.3 | fold induction at 50 µM [3, 17]: 0.4 | fold induction at 50 µM [4, 18]: 0.5 | fold induction at 50 µM [5, 19]: 0.6 | fold induction at 50 µM [6, 20]: 1 | fold induction at 50 µM [7, 21]: 0.8

Reference: patent US10004701B2, “Methods and compositions for treating infection” (UNIVERSITY OF ROCHESTER, priority 2012, dated 2018)
